Test [1] relates to LPA 18:2 in human plasma. Description: Human whole blood (plasma) LPA assay. Type of test: biochemical. The following applies: 2 h at 37 C, LPA 18:2 by LC-MS/MS. Here is the method: Blood is collected from healthy volunteers who gave informed consent into sodium heparin tubes by venipuncture, then gently inverted several times to prevent clotting. Tubes are centrifuged at 3000 rpm for 15 min at 4° C. then plasma is stored at −80° C. Compounds are diluted in DMSO in concentration dependent manner then 0.5 μL are dispensed into 96-well plate placed in ice. Plasma is defrosted on ice then 49.5 μL of plasma are added into the well containing 0.5 μL of compound (1% DMSO final). Plates are covered with a lid in polypropylene and incubated at +37° C., 5% CO2, for 2 h under gentle shaking (except controls which are stored at −20° C.).
At the end of the incubation, controls are defrosted in ice and transferred in the incubated plates for LC-MS/MS analysis with a non GLP-validated method. For the analysis, plasma proteins from a 10 μL incubated plates are precipitated with an excess of methanol containing the internal standard, LPA 17:0. After centrifugation, the corresponding supernatant is injected on a C18 column. Analytes are eluted out of the column under isocratic conditions. An API5500 QTRAP mass spectrometer (ABSciex™) is used for the detection of LPA 18:2. No calibration curve is prepared for LPA 18:2, however relative quantities are evaluated based on the peak area.

For test [2], the target named is T1, hENPP2 (UniProtKB/SwissProt Q13822) (Homo sapiens (Human), UniProt Q13822). The test can be described thus: hENPP2 biochemical assay, LPC as substrate. The following applies: LPC (palmitoyl 16:0) as substrate. In short, it runs like this: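 Human ENPP2 in 50 mM Tris-HCl pH 8.5, 500 mM NaCl, 5 mM KCl, 10 mM CaCl2, 0.1% fatty-acid-free BSA, reacted 30 min at 37 °C with LPC 16:0 (150 µM solution added 1:1). Released choline measured via choline oxidase/peroxidase/TOOS/4-aminoantipyrine quinoneimine dye at 555 nm; IC50 reported.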

The target in test [3] is T1, hENPP2. Description: fluorescent hENPP2 biochemical assay, FS-3 as substrate. Conditions: read-out: FS3-IC50. In outline:
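IC50 values come from fluorescence gained as FS-3 is hydrolysed (ex 485, em 520 nm). The reaction, started by adding 0.75 μM FS-3 solution, runs 30 min at 30° C after a 30 min room-temperature preincubation of compound with enzyme. Buffer: Tris-HCl pH 8.0 with NaCl, KCl, MgCl2, CaCl2 and 0.1% BSA.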

Test [4] concerns LPA 18:2 in rat plasma. The test can be described thus: Rat whole blood (plasma) LPA assay. The format is biochemical. Conditions: 2 h at 37 C, LPA 18:2 by LC-MS/MS. In short, it runs like this:
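Heparinised rat plasma spiked with compound (1% DMSO final), incubated 2 h at 37 °C, 5% CO2 with shaking; controls kept at −20 °C. After methanol precipitation with LPA 17:0 internal standard, LPA 18:2 measured by LC-MS/MS (C18, isocratic), relative quantities from peak area without calibration.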

The test system of test [5] is TS-induced pulmonary inflammation, cells in BALF. Description: Tobacco smoke (TS) model, lungs inflammatory cells recruitment. Type of test: in vivo, female C57BL/6J mice. Conditions: days 6 to 11, TS-exposed mice. Here is the method: The aim of this experiment is to evaluate the efficacy and potency of a test compound administered p.o., once or twice daily on days 6 to 11, vs reference compounds, on pulmonary inflammation induced by 11 days of TS-exposure in female C57BL/6J mice, by assessing the effect of a test compound on the tobacco smoke induced recruitment of inflammatory cells to the lungs.
The test compounds are formulated in PEG200/0.5% methylcellulose (25/75, v/v) and are given at a dose volume of 10 mL/kg. Roflumilast and Dexamethasone are included as positive […] control, respectively. Each treatment group consists of 10 mice.
A first group of mice is subjected to daily TS-exposure for 5 consecutive days and sacrificed on the day 6, 24 h after the final TS-exposure.
A second group is exposed to air for 5 consecutive days (sham exposure) and sacrificed on the day 6, 24 h after the final air-exposure.
Compound and reference-treated groups are subjected to daily TS-exposure for 11 consecutive days and sacrificed on the day 12, 24 h after the final TS-exposure. Mice are dosed p.o. on days 6 to 11, twice daily, 1 h prior to and 6 h after each TS-exposure, with either vehicle, or the test compound at 3, 5, 10 or 30 mg/kg. Another group is dosed p.o. on days 6 to 11, once daily, 1 h prior to each TS-exposure, with either vehicle, or the test compound at 10 mg/kg.
An additional group is dosed p.o., once daily, on days 6 to 11, with roflumilast at 5 mg/kg, 1 h prior to each TS-exposure. Dexamethasone is dosed p.o., twice daily, on days 6 to 11, at 0.3 mg/kg, 1 h prior to and 6 h after each TS-exposure.
For each mouse, a BAL is performed using 0.4 mL of PBS. The lavage fluid is centrifuged, the supernatant removed and the resulting cell pellet re-suspended for total cell counts and cytospin slide preparation. […]
The lungs are dissected out and the left lobes are removed, snap-frozen and stored at −80° C. […] Cell data are presented as individual data points for each animal and the mean value calculated for each group. […]
Percentage inhibitions for the cell data are calculated using the formula below: […]

SMILES strings stand for the structures.

In the case of `CCc1nc2c(F)cc(N3CCN(CC(=O)N4CC(O)C4)CC3)cn2c1N(C)c1nc(-c2ccc(F)cc2)c(C#N)s1` [Compound 12, 2-((2-ethyl-8-fluoro-6-(4-(2-(3-hydroxyazetidin-1-yl)-2-oxoethyl)piperazin-1-yl)imidazo[1,2-a]pyridin-3-yl)(methyl)amino)-4-(4-fluorophenyl)thiazole-5-carbonitrile], the half-maximal inhibitory concentration (IC50) – broadly, the concentration needed to halve the response being measured – in test [1] was in the range of 100 to 500 nM; in test [2], 0.01 to 100 nM; in test [3], 0.01 to 100 nM; in test [4], 0.01 to 100 nM. The “number of cells recovered in the BALF, in particular macrophage cells, epithelial cells, and neutrophils” value in test [5] (10 mg/kg twice daily p.o.) is reported as “significantly inhibited”.
Turning to `CCc1nc2c(C)cc(N3CCN(CC(=O)N4CC(O)C4)CC3)cn2c1N(C)c1nc(-c2ccc(F)cc2)c(C#N)s1` [Compound 2, 2-((2-ethyl-6-(4-(2-(3-hydroxyazetidin-1-yl)-2-oxoethyl)piperazin-1-yl)-8-methylimidazo[1,2-a]pyridin-3-yl)(methyl)amino)-4-(4-fluorophenyl) thiazole-5-carbonitrile], the IC50 was in the range of 100 to 500 nM in test [1] and 500 to 1000 nM in test [4]. For the same compound, the “number of cells recovered in the BALF, in particular macrophage cells, epithelial cells, and neutrophils” value in test [5] (3 mg/kg twice daily p.o.) and in test [5] (10 mg/kg twice daily p.o.) was “significantly inhibited” throughout.

These data come from patent US9670204B2, “Compounds and pharmaceutical compositions thereof for the treatment of inflammatory disorders” (Galapagos NV, priority 2013, dated 2017).
